In ChEMBL document CHEMBL4350989, “Discovery of 2,4-diarylaminopyrimidine derivatives bearing dithiocarbamate moiety as novel FAK inhibitors with antitumor and anti-angiogenesis activities” (Eur J Med Chem, 2019):

Legend:
HCT-116 = assay: Antiproliferative activity against human HCT116 cells overexpressing FAK assessed as reduction in cell viability after 72 hrs by MTS assay; conditions: HCT-116, 72 h
PC-3 = assay: Antiproliferative activity against human PC3 cells overexpressing FAK assessed as reduction in cell viability after 72 hrs by MTS assay; conditions: PC-3, 72 h
U-87 MG = assay: Antiproliferative activity against human U87MG cells overexpressing FAK assessed as reduction in cell viability after 72 hrs by MTS assay
MCF7 = assay: Antiproliferative activity against human MCF7 cells overexpressing FAK assessed as reduction in cell viability after 72 hrs by MTS assay; conditions: MCF7, 72 h
MCF-10A = assay: Cytotoxicity against human MCF10A cells assessed as reduction in cell viability after 72 hrs by MTS assay

SMILES	IC50 (HCT-116) [nM]	IC50 (PC-3) [nM]	IC50 (U-87 MG) [nM]	IC50 (MCF7) [nM]	IC50 (MCF-10A) [nM]
CNC(=O)c1ccccc1Nc1nc(Nc2ccc(C(=O)N3CCN(C(=S)SCCN4CCCCC4)CC3)cc2)ncc1Cl	10	380	280	270	–
C=CCSC(=S)N1CCN(C(=O)c2ccc(Nc3ncc(Cl)c(Nc4ccccc4C(=O)NC)n3)cc2)CC1	110	1020	> 20000	1380	–
CNC(=O)c1ccccc1Nc1nc(Nc2ccc(C(=O)N3CCN(C(=S)SCC4CCOCC4)CC3)cc2)ncc1Cl	90	310	> 20000	540	–
CNC(=O)c1ccccc1Nc1nc(Nc2ccc(C(=O)N3CCN(C(=S)SCc4ccccn4)CC3)cc2)ncc1Cl	60	400	2530	390	–
CNC(=O)c1ccccc1Nc1nc(Nc2ccc(C(=O)N3CCN(C(=S)SCCN(C)C)CC3)cc2)ncc1Cl	4	90	200 to 360	80 to 90	720
CNC(=O)c1ccccc1Nc1nc(Nc2ccc(C(=O)N3CCN(C(=S)SCc4ccccc4)CC3)cc2)ncc1Cl	50	17000	3360	> 20000	–
CNC(=O)c1ccccc1Nc1nc(Nc2ccc(C(=O)N3CCN(C(=S)SCc4cccnc4)CC3)cc2)ncc1Cl	30	450	1530	390	–
CNC(=O)c1ccccc1Nc1nc(Nc2ccc(C(=O)N3CCN(C(=S)SCCN4CCN(C)CC4)CC3)cc2)ncc1Cl	10	260	620	220	–
CNC(=O)c1ccccc1Nc1nc(Nc2ccc(C(=O)N3CCN(C(=S)SCCC#N)CC3)cc2)ncc1Cl	30	170	1730	7170	–
CNC(=O)c1ccccc1Nc1nc(Nc2ccc(C(=O)N3CCN(C(=S)SCCN4CCOCC4)CC3)cc2)ncc1Cl	3520	230	470	330	–
CCOC(=O)C(=O)CSC(=S)N1CCN(C(=O)c2ccc(Nc3ncc(Cl)c(Nc4ccccc4C(=O)NC)n3)cc2)CC1	60	470	1160	520	–
CNC(=O)c1ccccc1Nc1nc(Nc2ccc(C(=O)N3CCN(C(=S)SCCc4ccccc4)CC3)cc2)ncc1Cl	3780	> 20000	> 20000	11700	–
CCOC(=O)CSC(=S)N1CCN(C(=O)c2ccc(Nc3ncc(Cl)c(Nc4ccccc4C(=O)NC)n3)cc2)CC1	4690	3530	7540	9930	–
CNC(=O)c1ccccc1Nc1nc(Nc2ccc(C(=O)N3CCN(C(=S)SCCOC)CC3)cc2)ncc1Cl	40	460	610	300	–
CNC(=O)c1ccccc1Nc1nc(Nc2ccc(C(=O)N3CCN(C(=S)SCCN(C)C)CC3)cc2)ncc1F	30	360	690	160	1750
CNC(=O)c1ccccc1Nc1ccnc(Nc2ccc(C(=O)N3CCN(C(=S)SCCN(C)C)CC3)cc2)n1	440	3010	2800	2010	6190
CNC(=O)c1ccc(Nc2ncc(C(F)(F)F)c(NCc3nccnc3N(C)S(C)(=O)=O)n2)cc1 [DEFACTINIB]	2650 to 3020	> 20000	10200 to 10300	8970 to 9760	18400
CNC(=O)c1ccccc1Nc1nc(Nc2ccc(C(=O)N3CCN(C(=S)SCCN(C)C)CC3)cc2)ncc1OC	160	920	1610	360	2430
CNC(=O)c1ccccc1Nc1nc(Nc2ccc(C(=O)N3CCN(C(=S)SCCS(C)(=O)=O)CC3)cc2)ncc1Cl	30	520	920	400	–
CNC(=O)c1ccccc1Nc1nc(Nc2ccc(C(=O)N3CCN(C(=S)SCCN4CCCC4)CC3)cc2)ncc1Cl	10	220	200	160	–
CNC(=O)c1ccccc1Nc1nc(Nc2ccc(C(=O)N3CCN(C(=S)SCCN(C)C)CC3)cc2)ncc1C	10	270	280	80	1080
CNC(=O)c1ccccc1Nc1nc(Nc2ccc(N3CCOCC3)cc2OC)ncc1Cl	290 to 460	1210 to 1680	1580 to 1660	450 to 560	8760
CNC(=O)c1ccccc1Nc1nc(Nc2ccc(C(=O)N3CCN(C(=S)SCCO)CC3)cc2)ncc1Cl	20	240	710	110	–
CNC(=O)c1ccccc1Nc1nc(Nc2ccc(C(=O)N3CCN(C(=S)SCc4ccncc4)CC3)cc2)ncc1Cl	60	360	1700	770	–
CNC(=O)c1ccccc1Nc1nc(Nc2ccc(C(=O)N3CCN(C(=S)SCCC(=O)OC)CC3)cc2)ncc1Cl	260	1990	1310	2290	–
CNC(=O)c1ccccc1Nc1nc(Nc2ccc(C(=O)N3CCN(C(=S)SCCC4OCCO4)CC3)cc2)ncc1Cl	50	690	2740	210	–
CNC(=O)c1ccccc1Nc1nc(Nc2ccc(C(=O)N3CCN(C(=S)SCC(C)O)CC3)cc2)ncc1Cl (stereo not given)	30	200	870	110	–
